# Laboratory results from US20140017204A1, “Transfection of Mesothelium Body Cavity Lining with Gene Agents Followed by Chemotharapy to Treat Cancer of Organs in the Body Cavity” (WKD Holding Oy, priority 2012, published 2014).
# Tests used:
# murine tumor = murine tumor volume: gemcitabine and interferon beta gene therapy vector (FIG. 21); assay type: in vivo; conditions: after 40 days; placebo about 1400
# Excerpt: FIG. 21 is a chart comparing murine tumor volume of control; gemcitabine (administered day=0); interferon beta gene therapy vector (administered day=0); and interferon beta gene therapy vector (day=0) followed by gemcitabine (day=3).
# SKOV-3m cells = assay: intraperitoneal ovarian cancer xenograft model in mice; assay type: in vivo, Balb/cA-nu female nude mice; conditions: for mean survival: control group 15±1 days
# Description: Gene therapy was also combined with chemotherapy. Therapy was initiated when sizable tumors were confirmed in magnetic resonance imaging (MRI). Adenovirus-mediated gene transfer was performed intravenously (2×10^9 pfu), while chemotherapy and monoclonal anti-VEGF-antibody were dosed intraperitoneally. […] Effectiveness was assessed by survival time and surrogate measures such as sequential MRI, immunohistochemistry, microvessel density and tumor growth.
# Cells were cultured in McCoy's 5A medium (Gibco, Invitrogen, Life Technologies). Cancer cells were tested to be mycoplasma free. Before in vivo inoculation, the cells were trypsinized and counted.
# Chemotherapy and anti-VEGF-antibody: Carboplatin 10 mg/ml infusion concentrate was used at a dose of 80 mg/kg for the primary treatment of Balb/cA-nu mice. The dose per Balb/cA-nu was 1.6 mg/500 μl NaCl 0.9%. Paclitaxel 6 mg/ml concentrate was used at a dose of 20 mg/kg. The dose per nude mouse was 320 μg/500 μl NaCl 0.9%. […] It was injected every fifth day.
# Viral vectors: Adenoviral vectors encoding sVEGFR-1-IgG fusion protein, sVEGFR-2-IgG fusion protein, sVEGFR-3-IgG fusion protein and LacZ (AdLacZ) as a control vector were used for the study.
# Animal model: Eight to 10-weeks-old (n ¼ 80) Balb/cA-nu female nude mice were used for the studies. Ovarian carcinoma was produced by inoculating 1×10^7 SKOV-3m cells into the peritoneal cavity of nude mice with a 22 G needle. Development of the ovarian cancerous tumors was followed by sequential MRI. When the first solid, measurable tumor was detected in MRI, gene transfer or other treatment was started on the following day. Mice were randomly divided into six groups:
# Tumors developed within 3 weeks after the inoculation of the tumor cells. The presence of all tumors was verified by MRI (magnetic resonance imaging) before starting the therapy. Tumors were observed weekly until the death of the mice. Plasma samples were collected 6, 13, 20 and 27 days after the treatment. Gene transfer was performed intravenously (i.v.) via tail vein in the final volume of 200 ll in 0.9% saline.
# MRI was done weekly after gene transfer or treatment, and tumor volumes were measured. The overall follow-up time lasted until the appearance of significant symptoms necessitating sacrifice or to the death. At the time of death, all tumor tissue, liver, spleen, kidneys and lungs were harvested, and tumor masses were weighed. Ascites fluid was collected in a syringe. The mice were kept in a pathogen-free isolated unit at the National Experimental Animal Center of the University of Eastern Finland. Food, water and sawdust bedding were autoclaved, and the mice received chow and water ad libitum.
# Photographs of histological sections were taken and processed using an Olympus AX70 microscope (Olympus Optical, Japan) and analySIS (Soft Imaging System, GmbH, Germany) and PhotoShop (Adobe) softwares. Microvessel density (MVD) and total microvascular area (%) of the tumors (TVA) were measured from CD34-immunostained sections using analySIS software at 100× magnification in a blinded manner (FIG. 36). Six to 10 different fields, which represented maximum MVD areas, were selected from each tumor. Necrotic areas were avoided. In addition, the total number of LYVE-1-positive lymphatic vessels per section was counted. Mean 6 SEM of the measurements are reported. […]
# [1] = test system: malignant pleural mesothelioma; conditions: in vivo; cited from earlier work
compound,measurement,setting,value
Nc1ccn([C@@H]2O[C@H](CO)[C@@H](O)C2(F)F)c(=O)n1 [gemcitabine],average tumor size,murine tumor,1200 mm^3
N.N.O=C([O-])C1(C(=O)[O-])CCC1.[Pt+2] [carboplatin],mean survival,SKOV-3m cells,13 ± 1 days
CC(=O)O[C@H]1C(=O)[C@@]2(C)[C@H]([C@H](OC(=O)c3ccccc3)[C@]3(O)C[C@H](OC(=O)[C@H](O)[C@@H](NC(=O)c4ccccc4)c4ccccc4)C(C)=C1C3(C)C)[C@]1(OC(C)=O)CO[C@@H]1C[C@@H]2O [paclitaxel],mean survival,SKOV-3m cells,15 ± 1 days
N.N.[Cl][Pt][Cl] [cisplatin],median survival time,[1],9 months
bevacizumab,effect on angiogenesis by micro-vessel measurements,"SKOV-3m cells; mouse, in vivo",did not have any effect
same,"effect on survival, tumor volume or mean tumor weight","SKOV-3m cells; mouse, in vivo",did not have any significant effect
same,effect on the survival,"SKOV-3m cells; mouse, in vivo",did not have any significant effect
